# Assay results as given in ChEMBL document CHEMBL5331066, “Structure-guided design of novel HEPT analogs with enhanced potency and safety: From Isopropyl-HEPTs to Cyclopropyl-HEPTs” (Eur J Med Chem, 2023).
# Key:
# [1] = tested on: Human immunodeficiency virus 1; experiment: Antiviral activity against HIV1 harboring L100I mutant infected in human MT4 cells assessed as protection against virus-induced cytopathicity; type: functional, organism-based; settings: Human immunodeficiency virus 1, MT4
# [2] = tested on: Human immunodeficiency virus 1; experiment: Antiviral activity against wild type HIV1 IIIB infected in human MT4 cells assessed as protection against virus-induced cytopathicity; type: functional, organism-based; settings: Human immunodeficiency virus 1, IIIB
# [3] = Cytotoxicity against human MT4 cells assessed as reduction in cell viability; type: toxicity, cell-based
# [4] = Selectivity index, ratio of CC50 for cytotoxicity against human MT4 cells to EC50 for antiviral activity against wild type HIV1 IIIB infected in human MT4 cells; type: toxicity, cell-based; settings: read-out: Ratio CC50/EC50
# [5] = tested on: Human immunodeficiency virus 1; experiment: Antiviral activity against HIV1 harboring K103 N mutant infected in human MT4 cells assessed as protection against virus-induced cytopathicity; type: functional, organism-based; settings: Human immunodeficiency virus 1, MT4
# [6] = tested on: Human immunodeficiency virus 1; experiment: Antiviral activity against HIV1 harboring Y181C mutant infected in human MT4 cells assessed as protection against virus-induced cytopathicity; type: functional, organism-based; settings: Human immunodeficiency virus 1, MT4
# [7] = tested on: Human immunodeficiency virus 1; experiment: Antiviral activity against HIV1 harboring Y188L mutant infected in human MT4 cells assessed as protection against virus-induced cytopathicity; type: functional, organism-based; settings: Human immunodeficiency virus 1, MT4
# [8] = tested on: Human immunodeficiency virus 1; experiment: Antiviral activity against HIV1 harboring E138K mutant infected in human MT4 cells assessed as protection against virus-induced cytopathicity; type: functional, organism-based; settings: Human immunodeficiency virus 1, MT4
# [9] = target: Human immunodeficiency virus type 1 reverse transcriptase (Human immunodeficiency virus 1, UniProt Q72547); experiment: Inhibition of wild type HIV-1 reverse transcriptase assessed as inhibition of biotin deoxyuridine triphosphate incorporation into […]
# Cytochrome P450 1A2 = target: T1, Cytochrome P450 1A2 (Homo sapiens, UniProt P05177); experiment: Inhibition of CYP1A2 (unknown origin); type: ADME
# T1 sequence (P05177 whole entry): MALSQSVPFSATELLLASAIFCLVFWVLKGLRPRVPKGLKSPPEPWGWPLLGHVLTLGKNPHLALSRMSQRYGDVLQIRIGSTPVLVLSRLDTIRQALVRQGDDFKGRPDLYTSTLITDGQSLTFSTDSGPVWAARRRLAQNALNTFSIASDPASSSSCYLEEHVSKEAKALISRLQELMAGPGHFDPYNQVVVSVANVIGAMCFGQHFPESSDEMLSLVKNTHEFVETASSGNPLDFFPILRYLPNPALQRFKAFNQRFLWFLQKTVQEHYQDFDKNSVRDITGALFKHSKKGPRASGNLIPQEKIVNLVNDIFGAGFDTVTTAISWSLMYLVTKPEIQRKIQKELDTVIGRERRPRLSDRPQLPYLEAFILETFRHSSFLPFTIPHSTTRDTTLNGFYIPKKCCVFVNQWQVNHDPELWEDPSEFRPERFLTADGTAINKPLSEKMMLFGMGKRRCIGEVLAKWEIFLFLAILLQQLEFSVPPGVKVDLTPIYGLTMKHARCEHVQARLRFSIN
# Cytochrome P450 2C9 = Cytochrome P450 2C9 (Homo sapiens, UniProt P11712); experiment: Inhibition of CYP2C9 (unknown origin); type: ADME
# Cytochrome P450 2C19 = Cytochrome P450 2C19 (Homo sapiens, UniProt P33261); experiment: Inhibition of CYP2C19 (unknown origin); type: ADME
# Cytochrome P450 2D6 = Cytochrome P450 2D6 (Homo sapiens, UniProt P10635); experiment: Inhibition of CYP2D6 (unknown origin); type: ADME
# Cytochrome P450 3A4 [10] = target: T2, Cytochrome P450 3A4 (Homo sapiens, UniProt P08684); experiment: Inhibition of CYP3A4T (unknown origin); type: ADME
# Cytochrome P450 3A4 [11] = target: T2, Cytochrome P450 3A4; experiment: Inhibition of CYP3A4M (unknown origin); type: ADME
# [12] = AUC (0-infinity) in Sprague-Dawley rat at 1 mg/kg,iv; type: ADME, organism-based; design: dose 1 mg/kg, route iv; settings: in vivo
# [13] = AUC (0-infinity) in Sprague-Dawley rat at 10 mg/kg,po; type: ADME, organism-based; design: dose 10 mg/kg, route po; settings: in vivo
# [14] = AUC (0-t) in Sprague-Dawley rat at 1 mg/kg,iv; type: ADME, organism-based; design: dose 1 mg/kg, route iv; settings: in vivo
# [15] = AUC (0-t) in Sprague-Dawley rat at 10 mg/kg,po; type: ADME, organism-based; design: dose 10 mg/kg, route po; settings: in vivo
# [16] = Half life in Sprague-Dawley rat at 1 mg/kg,iv; type: ADME, organism-based; settings: in vivo
# [17] = Half life in Sprague-Dawley rat at 10 mg/kg,po; type: ADME, organism-based; settings: in vivo
# [18] = Tmax in Sprague-Dawley rat at 1 mg/kg,iv; type: ADME, organism-based; settings: in vivo
# [19] = Tmax in Sprague-Dawley rat at 10 mg/kg,po; type: ADME, organism-based; settings: in vivo
# [20] = Apparent volume of distribution in Sprague-Dawley rat at 1 mg/kg,iv; type: ADME, organism-based; settings: in vivo, read-out: Vz
# [21] = Clearance in Sprague-Dawley rat at 1 mg/kg,iv; type: ADME, organism-based; settings: in vivo
# [22] = Cmax in Sprague-Dawley rat at 1 mg/kg,iv; type: ADME, organism-based; design: dose 1 mg/kg, route iv; settings: in vivo
# [23] = Cmax in Sprague-Dawley rat at 10 mg/kg,po; type: ADME, organism-based; design: dose 10 mg/kg, route po; settings: in vivo
# [24] = Oral bioavailability in Sprague-Dawley rat at 10 mg/kg; type: ADME, organism-based; settings: in vivo
# [25] = target: Voltage-gated inwardly rectifying potassium channel KCNH2 (Homo sapiens, UniProt Q12809); experiment: Inhibition of human ERG potassium channel expressed in CHO cells by manual patch clamp method; type: toxicity, cell-based
# [26] = Acute toxicity in mouse assessed as death at 1000 mg/kg,IG administrated for 2 weeks; type: organism-based; settings: in vivo, po, 336 h
# [27] = Acute toxicity in mouse assessed as increase in body weight at 1000 mg/kg,IG administrated for 2 weeks; type: organism-based; settings: in vivo, po, 336 h
# [28] = Acute toxicity in mouse assessed as behavioral abnormalities at 1000 mg/kg,IG administrated for 2 weeks; type: organism-based; settings: in vivo, po, 336 h
# [29] = Acute toxicity in mouse assessed as pathological changes in heart at 1000 mg/kg,IG administrated for 2 weeks by hematoxylin-eosin staining based analysis; type: organism-based; settings: in vivo, po, 336 h
# [30] = Acute toxicity in mouse assessed as pathological changes in liver at 1000 mg/kg,IG administrated for 2 weeks by hematoxylin-eosin staining based analysis; type: organism-based; settings: in vivo, po, 336 h
# [31] = Acute toxicity in mouse assessed as pathological changes in spleen at 1000 mg/kg,IG administrated for 2 weeks by hematoxylin-eosin staining based analysis; type: organism-based; settings: in vivo, po, 336 h
# [32] = Acute toxicity in mouse assessed as pathological changes in lung at 1000 mg/kg,IG administrated for 2 weeks by hematoxylin-eosin staining based analysis; type: organism-based; settings: in vivo, po, 336 h
# [33] = Acute toxicity in mouse assessed as pathological changes in kidney at 1000 mg/kg,IG administrated for 2 weeks by hematoxylin-eosin staining based analysis; type: organism-based; settings: in vivo, po, 336 h
# [34] = Acute toxicity in mouse assessed as pathological changes in brain at 1000 mg/kg,IG administrated for 2 weeks by hematoxylin-eosin staining based analysis; type: organism-based; settings: in vivo, po, 336 h
# T2 sequence (P08684 whole entry): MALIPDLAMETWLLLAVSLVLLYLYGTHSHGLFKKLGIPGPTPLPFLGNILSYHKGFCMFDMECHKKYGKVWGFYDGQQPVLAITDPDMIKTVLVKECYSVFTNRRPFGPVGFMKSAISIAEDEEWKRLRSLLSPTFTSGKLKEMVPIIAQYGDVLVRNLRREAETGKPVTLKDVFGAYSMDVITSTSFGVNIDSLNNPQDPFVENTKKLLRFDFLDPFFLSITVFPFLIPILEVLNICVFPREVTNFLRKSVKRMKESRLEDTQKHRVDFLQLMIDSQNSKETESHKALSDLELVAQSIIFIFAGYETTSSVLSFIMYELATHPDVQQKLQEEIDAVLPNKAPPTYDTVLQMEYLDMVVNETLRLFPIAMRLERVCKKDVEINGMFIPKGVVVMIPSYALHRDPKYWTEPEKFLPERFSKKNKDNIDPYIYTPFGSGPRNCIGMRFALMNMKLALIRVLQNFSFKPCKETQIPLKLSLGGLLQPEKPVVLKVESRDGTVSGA
# Cytochrome P450 2D6, sequence (P10635 whole entry): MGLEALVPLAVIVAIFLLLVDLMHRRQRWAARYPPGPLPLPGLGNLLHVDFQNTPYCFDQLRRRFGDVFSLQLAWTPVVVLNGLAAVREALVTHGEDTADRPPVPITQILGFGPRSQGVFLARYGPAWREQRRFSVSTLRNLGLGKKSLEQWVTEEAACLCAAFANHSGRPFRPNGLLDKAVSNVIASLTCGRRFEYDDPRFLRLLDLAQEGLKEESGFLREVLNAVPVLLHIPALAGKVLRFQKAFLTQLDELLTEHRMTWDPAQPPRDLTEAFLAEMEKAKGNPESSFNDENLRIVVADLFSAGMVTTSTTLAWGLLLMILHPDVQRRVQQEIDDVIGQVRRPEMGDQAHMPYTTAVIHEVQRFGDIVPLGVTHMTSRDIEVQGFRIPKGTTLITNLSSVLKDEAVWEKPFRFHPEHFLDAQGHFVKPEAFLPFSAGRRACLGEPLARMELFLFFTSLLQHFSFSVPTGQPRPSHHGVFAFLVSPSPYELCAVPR
# Cytochrome P450 2C19, sequence (P33261 whole entry): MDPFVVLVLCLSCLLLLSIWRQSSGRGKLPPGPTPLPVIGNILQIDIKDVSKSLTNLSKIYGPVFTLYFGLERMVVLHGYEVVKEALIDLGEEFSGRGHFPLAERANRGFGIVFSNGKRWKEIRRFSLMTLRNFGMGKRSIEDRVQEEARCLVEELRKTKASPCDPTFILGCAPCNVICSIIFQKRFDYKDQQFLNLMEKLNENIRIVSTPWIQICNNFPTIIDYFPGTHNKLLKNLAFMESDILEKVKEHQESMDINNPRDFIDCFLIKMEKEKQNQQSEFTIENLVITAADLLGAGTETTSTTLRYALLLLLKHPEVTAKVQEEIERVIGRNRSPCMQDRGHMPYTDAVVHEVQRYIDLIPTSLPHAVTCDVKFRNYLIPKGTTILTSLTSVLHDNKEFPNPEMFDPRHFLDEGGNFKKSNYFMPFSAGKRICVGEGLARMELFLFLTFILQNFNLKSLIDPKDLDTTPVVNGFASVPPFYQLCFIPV
# Cytochrome P450 2C9, sequence (P11712 whole entry): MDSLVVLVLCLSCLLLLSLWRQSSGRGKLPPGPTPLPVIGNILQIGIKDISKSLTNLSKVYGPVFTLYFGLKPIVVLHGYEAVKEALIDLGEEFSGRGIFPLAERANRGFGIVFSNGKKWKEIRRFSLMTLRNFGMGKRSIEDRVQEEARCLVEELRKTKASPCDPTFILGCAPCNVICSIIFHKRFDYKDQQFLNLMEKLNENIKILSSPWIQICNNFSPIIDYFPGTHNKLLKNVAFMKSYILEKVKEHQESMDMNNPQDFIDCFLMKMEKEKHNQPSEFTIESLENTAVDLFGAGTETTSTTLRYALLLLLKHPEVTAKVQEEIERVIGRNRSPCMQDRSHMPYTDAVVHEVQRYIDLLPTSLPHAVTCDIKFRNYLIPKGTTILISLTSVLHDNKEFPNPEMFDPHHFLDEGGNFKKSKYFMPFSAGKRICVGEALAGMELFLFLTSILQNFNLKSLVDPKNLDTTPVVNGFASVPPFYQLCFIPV
# Voltage-gated inwardly rectifying potassium channel KCNH2, sequence (Q12809 whole entry): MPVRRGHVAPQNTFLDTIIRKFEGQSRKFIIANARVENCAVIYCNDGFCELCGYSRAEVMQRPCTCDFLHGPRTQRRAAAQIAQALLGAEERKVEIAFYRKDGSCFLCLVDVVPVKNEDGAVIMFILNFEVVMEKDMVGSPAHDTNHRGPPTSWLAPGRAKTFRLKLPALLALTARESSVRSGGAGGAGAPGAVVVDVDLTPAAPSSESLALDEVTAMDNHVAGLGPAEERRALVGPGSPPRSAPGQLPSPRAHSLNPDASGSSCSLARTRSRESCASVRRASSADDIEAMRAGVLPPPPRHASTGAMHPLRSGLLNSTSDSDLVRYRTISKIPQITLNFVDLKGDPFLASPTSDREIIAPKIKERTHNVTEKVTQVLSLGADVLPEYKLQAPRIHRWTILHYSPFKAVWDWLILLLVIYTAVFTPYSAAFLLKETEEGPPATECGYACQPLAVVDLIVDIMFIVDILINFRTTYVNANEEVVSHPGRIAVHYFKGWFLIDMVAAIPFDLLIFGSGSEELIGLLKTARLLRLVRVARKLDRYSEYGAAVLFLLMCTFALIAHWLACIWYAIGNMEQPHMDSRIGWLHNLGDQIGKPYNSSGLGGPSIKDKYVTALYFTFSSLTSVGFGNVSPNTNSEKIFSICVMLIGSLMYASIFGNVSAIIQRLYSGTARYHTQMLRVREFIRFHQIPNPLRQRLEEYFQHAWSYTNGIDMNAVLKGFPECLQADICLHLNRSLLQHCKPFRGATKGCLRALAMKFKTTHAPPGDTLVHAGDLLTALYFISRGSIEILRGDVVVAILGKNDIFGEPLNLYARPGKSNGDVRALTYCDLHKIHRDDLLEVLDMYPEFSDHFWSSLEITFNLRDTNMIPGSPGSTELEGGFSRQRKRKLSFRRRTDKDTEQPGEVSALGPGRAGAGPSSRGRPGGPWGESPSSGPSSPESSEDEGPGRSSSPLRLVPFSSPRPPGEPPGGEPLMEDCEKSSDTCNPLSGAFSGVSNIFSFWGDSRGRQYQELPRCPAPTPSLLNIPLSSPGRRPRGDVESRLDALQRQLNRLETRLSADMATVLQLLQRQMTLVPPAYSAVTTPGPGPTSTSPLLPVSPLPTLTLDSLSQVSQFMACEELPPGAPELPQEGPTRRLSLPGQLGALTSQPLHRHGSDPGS
smiles,measurement,setting,value
O=c1[nH]c(=O)n(COCc2ccccc2)c(Sc2cccc(Cl)c2)c1C1CC1,EC50,[1],0.36 µM
same,EC50,[2],0.048 µM
same,CC50,[3],29.7 µM
same,selectivity ratio,[4],613
same,EC50,[5],3.74 µM
same,EC50,[6],3.28 µM
same,EC50,[7],> 29.7 µM
same,EC50,[8],0.19 µM
same,IC50,[9],0.06 µM
O=c1[nH]c(=O)n(COCc2ccccc2)c(Sc2cccc(F)c2F)c1C1CC1,EC50,[1],0.5 µM
same,EC50,[2],0.14 µM
same,CC50,[3],31.4 µM
same,selectivity ratio,[4],224
same,EC50,[5],> 3.84 µM
same,EC50,[6],> 31.4 µM
same,EC50,[7],> 31.4 µM
same,EC50,[8],0.5 µM
same,IC50,[9],0.24 µM
O=c1[nH]c(=O)n(COCc2ccccc2)c(Sc2cc(F)ccc2F)c1C1CC1,EC50,[1],0.38 µM
same,EC50,[2],0.017 µM
same,CC50,[3],39.2 µM
same,selectivity ratio,[4],2330
same,EC50,[5],2.64 µM
same,EC50,[6],1.85 µM
same,EC50,[7],> 39.2 µM
same,EC50,[8],0.09 µM
same,IC50,[9],0.03 µM
same,IC50,Cytochrome P450 1A2,> 50 µM
same,IC50,Cytochrome P450 2C9,27.6 µM
same,IC50,Cytochrome P450 2C19,30.3 µM
same,IC50,Cytochrome P450 2D6,> 50 µM
same,IC50,Cytochrome P450 3A4 [10],> 50 µM
same,IC50,Cytochrome P450 3A4 [11],> 50 µM
same,AUC(0-inf),[12],1100 ng·h/mL
same,AUC(0-inf),[13],9560 ng·h/mL
same,AUC(0-t),[14],1100 ng·h/mL
same,AUC(0-t),[15],8660 ng·h/mL
same,half-life,[16],30.8 min
same,half-life,[17],151 min
same,Tmax,[18],4.98 min
same,Tmax,[19],35 min
same,Vd,[20],0.698 L/kg
same,clearance,[21],15.6 mL/min/kg
same,Cmax,[22],2030 ng/mL
same,Cmax,[23],3520 ng/mL
same,bioavailability,[24],86.7%
same,IC50,[25],> 40 µM
same,Activity,[26],Non-Toxic
same,Activity,[27],Non-Toxic
same,Activity,[28],Non-Toxic
same,Activity,[29],Non-Toxic
same,Activity,[30],Non-Toxic
same,Activity,[31],Non-Toxic
same,Activity,[32],Non-Toxic
same,Activity,[33],Non-Toxic
same,Activity,[34],Non-Toxic
O=c1[nH]c(=O)n(COCc2ccccc2)c(Sc2ccc(Cl)cc2)c1C1CC1,EC50,[1],4.48 µM
same,EC50,[2],4.46 µM
same,CC50,[3],30.2 µM
same,selectivity ratio,[4],7
same,EC50,[5],> 30.3 µM
same,EC50,[6],3.78 µM
same,EC50,[7],> 30.3 µM
same,EC50,[8],> 30.3 µM
same,IC50,[9],5.78 µM
O=c1[nH]c(=O)n(COCc2ccccc2)c(Sc2c(Cl)cccc2Cl)c1C1CC1,EC50,[1],2.65 µM
same,EC50,[2],3.14 µM
same,CC50,[3],22.9 µM
same,selectivity ratio,[4],7
same,EC50,[5],> 22.9 µM
same,EC50,[6],> 22.9 µM
same,EC50,[7],> 22.9 µM
same,EC50,[8],3.07 µM
same,IC50,[9],4.23 µM
O=c1[nH]c(=O)n(COCc2ccccc2)c(Sc2cc(Cl)cc(Cl)c2)c1C1CC1,EC50,[1],0.4 µM
same,EC50,[2],0.073 µM
same,CC50,[3],28.7 µM
same,selectivity ratio,[4],395
same,EC50,[5],2.74 µM
same,EC50,[6],1.71 µM
same,EC50,[7],7.7 µM
same,EC50,[8],0.45 µM
same,IC50,[9],0.11 µM
O=c1[nH]c(=O)n(COCc2ccccc2)c(Sc2ccccc2Br)c1C1CC1,EC50,[1],0.54 µM
same,EC50,[2],0.15 µM
same,CC50,[3],27.2 µM
same,selectivity ratio,[4],184
same,EC50,[5],7.21 µM
same,EC50,[6],2.66 µM
same,EC50,[7],> 27.2 µM
same,EC50,[8],0.41 µM
same,IC50,[9],0.16 µM
COc1ccc2c(c1)[C@]13CCCC[C@@H]1[C@H](C2)N(C)CC3 [DEXTROMETHORPHAN],IC50,Cytochrome P450 2D6,0.052 µM
